The structures appear in SMILES notation. Where only a bound is given, the exact number is not on record here.

This assay deals with T1, human PDE10A2 (Homo sapiens, UniProt Q9Y233).
T1 construct: made in house; host or cells: AD293 cells, transiently transfected; The cytosolic supernatant of the lysate served as the enzyme
T1 sequence (Q9Y233 267-1055): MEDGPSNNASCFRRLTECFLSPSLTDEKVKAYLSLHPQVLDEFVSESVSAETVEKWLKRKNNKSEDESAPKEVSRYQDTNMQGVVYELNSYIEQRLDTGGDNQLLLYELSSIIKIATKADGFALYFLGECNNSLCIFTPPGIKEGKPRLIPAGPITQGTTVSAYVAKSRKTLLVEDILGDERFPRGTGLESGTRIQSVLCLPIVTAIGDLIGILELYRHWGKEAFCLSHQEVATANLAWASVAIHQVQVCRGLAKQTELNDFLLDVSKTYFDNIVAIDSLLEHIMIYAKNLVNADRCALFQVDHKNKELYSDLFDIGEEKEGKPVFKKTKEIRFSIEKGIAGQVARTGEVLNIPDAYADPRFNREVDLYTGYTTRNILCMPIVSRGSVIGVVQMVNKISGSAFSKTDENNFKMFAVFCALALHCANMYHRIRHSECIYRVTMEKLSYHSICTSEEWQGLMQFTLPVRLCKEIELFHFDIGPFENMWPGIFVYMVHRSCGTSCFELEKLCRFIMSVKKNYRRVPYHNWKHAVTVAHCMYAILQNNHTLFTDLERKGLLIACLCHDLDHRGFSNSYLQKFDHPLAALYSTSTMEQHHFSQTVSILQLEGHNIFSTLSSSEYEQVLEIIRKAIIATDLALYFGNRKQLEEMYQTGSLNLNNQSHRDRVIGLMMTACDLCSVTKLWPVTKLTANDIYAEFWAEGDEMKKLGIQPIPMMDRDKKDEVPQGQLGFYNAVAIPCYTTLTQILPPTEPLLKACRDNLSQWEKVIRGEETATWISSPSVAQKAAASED
The experiment in a line: PDE10 fluorescence polarization (IMAP FP) inhibition assay. In kind it is biochemical. The conditions noted are these: apparent inhibition constant; FAM-labeled cAMP 50 nM; lysate of AD293 cells transfected with human PDE10A2; room temperature; read-out: PDE10a Ki. On the procedure:
The activity of the compounds in accordance with the present invention as PDE10 inhibitors may be readily determined without undue experimentation using a fluorescence polarization (FP) methodology that is well known in the art (Huang, W., et al., J. Biomol Screen, 2002, 7: 215).
In a typical experiment the PDE 10 inhibitory activity of the compounds of the present invention was determined in accordance with the following experimental method. PDE 10A2 was amplified from human fetal brain cDNA (Clontech, Mountain View, Calif.) using a forward primer corresponding to nucleotides 56-77 of human PDE10A2 (Accession No. AF127480, Genbank Identifier 4894716), containing a Kozak consensus sequence, and a reverse primer corresponding to nucleotides 2406-2413 of human PDE10A2 (Accession No. AF127480, Genbank Identifier 4894716). Amplification with Easy-A polymerase (Stratagene, La Jolla, Calif.) was 95° C. for 2 minutes followed by thirty three cycles of 95° C. for 40 seconds, 55° C. for 30 seconds, and 72° C. for 2 minutes 48 seconds. Final extension was 72° C. for 7 minutes. The PCR product was TA cloned into pcDNA3.2-TOPO (Invitrogen, Carlsbad, Calif.) according to standard protocol. AD293 cells with 70-80% confluency were transiently transfected with human PDE10A2/pcDNA3.2-TOPO using Lipofectamine 2000 according to manufacturer specifications (Invitrogen, Carlsbad, Calif.). Cells were harvested 48 hours post-transfection and lysed by sonication (setting 3, 10×5 sec pulses) in a buffer containing 20 mM HEPES, 1 mM EDTA and protease inhibitor cocktail (Roche). Lysate was collected by centrifugation at 75,000×g for 20 minutes. Supernatant containing the cytoplasmic fraction was used for evaluation of PDE10A2 activity. The fluorescence polarization assay for cyclic nucleotide phosphodiesterases was performed using an IMAP® FP kit supplied by Molecular Devices, Sunnyvale, Calif. (product # R8139). IMAP® technology has been applied previously to phosphodiesterase assays (Huang, W., et al., J. Biomol Screen, 2002, 7: 215). Assays were performed at room temperature in 384-well microtiter plates with an incubation volume of 20.2 μL. Solutions of test compounds were prepared in DMSO and serially diluted with DMSO to yield 8 μL of each of 10 solutions differing by 3-fold in concentration, at 32 serial dilutions per plate. 100% inhibition is determined using a known PDE 10 inhibitor, which can be any compound that is present at 5,000 times its Ki value in the assay described as follows, such as papaverine (see Siuciak, et al. Neuropharmacology (2006) 51:386-396; Becker, et al. Behav Brain Res (2008) 186(2):155-60; Threlfell, et al., J Pharmacol Exp Ther (2009) 328(3):785-795), 2-{4-[pyridin-4-yl-1-(2,2,2-trifluoroethyl)-1H-pyrazol-3-yl]phenoxymethyl}quinoline succinic acid or 2-[4-(1-methyl-4-pyridin-4-yl-1H-pyrazol-3-yl)-phenoxymethyl]quinoline succinic acid (see Schmidt, et al. J Pharmacol Exp Ther (2008) 325:681-690; Threlfell, et al., J Pharmacol Exp Ther (2009) 328(3): 785-795). 0% of inhibition is determined by using DMSO (1% final concentrations). A Labcyte Echo 555 (Labcyte, Sunnyvale, Calif.) is used to dispense 200 nL from each well of the titration plate to the 384 well assay plate. A solution of enzyme ( 1/7000 dilution from aliquots; sufficient to produce 20% substrate conversion) and a separate solution of FAM-labeled cAMP PDE from Molecular Devices (product # R7506), at a final concentration of 50 nM are made in the assay buffer (10 mM Tris HCl, pH 7.2, 10 mM MgCl2, 0.05% NaN3 0.01% Tween-20, and 1 mM DTT). The enzyme is added to the assay plates by the addition of 10 μL of enzyme solution to each well, shaken to mix and incubated at room temperature for 60 minutes. The substrate is then added to the assay plates by the addition of 10 μL of substrate solution to each well, shaken to mix, and incubated at room temperature for 60 minutes. […]
A general note: Fluorescence polarisation rises when a labelled molecule tumbles more slowly, as on binding a larger partner.
On to `COc1ccc(Cc2nc(N)nn2-c2cc(=O)n(Cc3ccc4ccccc4n3)cn2)cc1OC` [1-75, 6-(3-amino-5-(3,4-dimethoxybenzyl)-1H-1,2,4-triazol-1-yl)-3-(quinolin-2-ylmethyl)pyrimidin-4(3H)-one], for which the Ki was determined as 64 nM.
For the compound `COc1ccc(CNc2nc(Cc3ccc(OC)c(OC)c3)n(-c3ccccc3)n2)cc1` [1-10, 5-(3,4-dimethoxybenzyl)-N-(4-methoxybenzyl)-1-phenyl-1H-1,2,4-triazol-3-amine], the Ki came out at 146 nM.
As to `COc1ccc(Cc2nc(N)nn2-c2cc(OC3Cc4ccccc4C3)ncn2)cc1OC` [1-39, 1-(6-(2,3-dihydro-1H-inden-2-yloxy)pyrimidin-4-yl)-5-(3,4-dimethoxybenzyl)-1H-1,2,4-triazol-3-amine], the Ki came out at 970 nM.
The same measure for `COc1ccc(Cc2nc(N)nn2-c2cc(C)cc(C)c2)cc1OC` [1-17, 5-(3,4-dimethoxybenzyl)-1-(3,5-dimethylphenyl)-1H-1,2,4-triazol-3-amine]: 101 nM; for `COc1ccc(Cc2nc(N)nn2-c2cc(OCc3cncc(N4CCNCC4)n3)ncn2)cc1OC` [1-45, 5-(3,4-dimethoxybenzyl)-1-(6-((6-(piperazin-1-yl)pyrazin-2-yl)methoxy)pyrimidin-4-yl)-1H-1,2,4-triazol-3-amine]: 570 nM; for `COc1ccc(Cc2nc(N)nn2-c2cc(Oc3ccc4ccccc4n3)nc(C)n2)cc1OC` [1-83, 3-amino-5-(3,4-dimethoxybenzyl)-1-(2-methyl-6-(quinolin-2-yloxy)pyrimidin-4-yl)-1H-1,2,4-triazole-2,4-diium]: 47 nM.
For the compound `COc1ccc(Cc2nc(N)nn2-c2cc(=O)n(Cc3cnc(N4CCNCC4)cn3)cn2)cc1OC` [1-58, 6-(3-amino-5-(3,4-dimethoxybenzyl)-1H-1,2,4-triazol-1-yl)-3-((5-(piperazin-1-yl)pyrazin-2-yl)methyl)pyrimidin-4(3H)-one], the Ki was 37 nM.
For the compound `COc1ccc(CNc2nc(Cc3ccc(OC)c(OC)c3)n(-c3cc(Oc4cccnc4)nc(C)n3)n2)cc1` [1-77, 5-(3,4-dimethoxybenzyl)-N-(4-methoxybenzyl)-1-(2-methyl-6-(pyridin-3-yloxy)pyrimidin-4-yl)-1H-1,2,4-triazol-3-amine], the Ki was determined as 1000 nM.
As for `COc1ccc(CNc2nc(Cc3ccc(OC)c(OC)c3)n(-c3cc(C#Cc4ccccn4)nc(C)n3)n2)cc1` [1-84, 5-(3,4-dimethoxybenzyl)-N-(4-methoxybenzyl)-1-(2-methyl-6-(pyridin-2-ylethynyl)pyrimidin-4-yl)-1H-1,2,4-triazol-3-amine], the Ki stood at 19 nM.
As for `COc1ccc(Cc2nc(N)nn2-c2cc(=O)n(Cc3nc4ccccc4[nH]3)cn2)cc1OC` [1-54, 3-((1H-benzo[d]imidazol-2-yl)methyl)-6-(3-amino-5-(3,4-dimethoxybenzyl)-1H-1,2,4-triazol-1-yl)pyrimidin-4(3H)-one], the Ki amounted to 390 nM.
The figure for `COc1ccc(Cc2nc(N)nn2-c2cc(=O)n(Cc3ccc(-c4ccncc4)cc3)cn2)cc1OC` [1-56, 6-(3-amino-5-(3,4-dimethoxybenzyl)-1H-1,2,4-triazol-1-yl)-3-(4-(pyridin-4-yl)benzyl)pyrimidin-4(3H)-one] is 540 nM; for `COc1ccc(CNc2nc(Cc3ccc(OC)c(OC)c3)n(-c3ccccn3)n2)cc1` [1-13, 5-(3,4-dimethoxybenzyl)-N-(4-methoxybenzyl)-1-(pyridin-2-yl)-1H-1,2,4-triazol-3-amine] it is 780 nM; for `COc1ccc(Cc2nc(N)nn2-c2cc(=O)n(Cc3nc4ccccc4s3)cn2)cc1OC` [1-73, 6-(3-amino-5-(3,4-dimethoxybenzyl)-1H-1,2,4-triazol-1-yl)-3-(benzo[d]thiazol-2-ylmethyl)pyrimidin-4(3H)-one] it is below 3.8 nM.
The same measure for `COc1ccc(Cc2nc(N)nn2-c2cc(=O)n(Cc3ccccc3C(F)(F)F)cn2)cc1OC` [1-50, 6-(3-amino-5-(3,4-dimethoxybenzyl)-1H-1,2,4-triazol-1-yl)-3-(2-(trifluoromethyl)benzyl)pyrimidin-4(3H)-one]: 190 nM.
As for `COc1ccc(Cc2nc(N)nn2-c2cc(OCC3CC3c3ccccc3)ncn2)cc1OC` (centres unmarked) [1-67, 5-(3,4-dimethoxybenzyl)-1-(6-((2-phenylcyclopropyl)methoxy)pyrimidin-4-yl)-1H-1,2,4-triazol-3-amine], the Ki was found to be 320 nM.
On to `COc1ccc(COc2cc(-n3nc(N)nc3Cc3ccc(OC)c(OC)c3)ncn2)cc1` [1-36, 5-(3,4-dimethoxybenzyl)-1-(6-(4-methoxybenzyloxy)pyrimidin-4-yl)-1H-1,2,4-triazol-3-amine], for which the Ki came out at 550 nM.
Take `COc1ccc(Cc2nc(N)nn2-c2cc(OCc3ccc4ccccc4c3)ncn2)cc1OC` [1-38, 5-(3,4-dimethoxybenzyl)-1-(6-(naphthalen-2-ylmethoxy)pyrimidin-4-yl)-1H-1,2,4-triazol-3-amine]: the Ki is 54 nM.
The figure for `COc1ccc(Cc2nc(N)nn2-c2cc(OCCN3CCNC3=O)ncn2)cc1OC` [1-44, 1-(2-(6-(3-amino-5-(3,4-dimethoxybenzyl)-1H-1,2,4-triazol-1-yl)pyrimidin-4-yloxy)ethyl)imidazolidin-2-one] is 18 nM; for `COc1ccc(Cc2nc(N)nn2-c2cc(=O)n(Cc3ccccn3)cn2)cc1OC` [1-49, 6-(3-amino-5-(3,4-dimethoxybenzyl)-1H-1,2,4-triazol-1-yl)-3-(pyridin-2-ylmethyl)pyrimidin-4(3H)-one] it is below 3.8 nM; for `COc1ccc(CNc2nc(Cc3ccc(OC)c(OC)c3)n(C)n2)cc1` [1-11, 5-(3,4-dimethoxybenzyl)-N-(4-methoxybenzyl)-1-methyl-1H-1,2,4-triazol-3-amine] it is 24.8 nM.

Source of the values: patent US20130225583A1, “SUBSTITUTED AMINO-TRIAZOLYL PDE10 INHIBITORS” (priority 2010, published 2013).
